Assay results reported in ChEMBL document CHEMBL1156660, “Alkaloids from the mushroom Pseudobaeospora pyrifera, pyriferines A-C” (J Nat Prod, 2008).

Target: Acetylcholinesterase (Homo sapiens) (UniProt P22303)
Assay: Inhibition of acetylcholinesterase at 100 uM by chemiluminescence method

Sequence of Acetylcholinesterase (Homo sapiens) (P22303 whole entry): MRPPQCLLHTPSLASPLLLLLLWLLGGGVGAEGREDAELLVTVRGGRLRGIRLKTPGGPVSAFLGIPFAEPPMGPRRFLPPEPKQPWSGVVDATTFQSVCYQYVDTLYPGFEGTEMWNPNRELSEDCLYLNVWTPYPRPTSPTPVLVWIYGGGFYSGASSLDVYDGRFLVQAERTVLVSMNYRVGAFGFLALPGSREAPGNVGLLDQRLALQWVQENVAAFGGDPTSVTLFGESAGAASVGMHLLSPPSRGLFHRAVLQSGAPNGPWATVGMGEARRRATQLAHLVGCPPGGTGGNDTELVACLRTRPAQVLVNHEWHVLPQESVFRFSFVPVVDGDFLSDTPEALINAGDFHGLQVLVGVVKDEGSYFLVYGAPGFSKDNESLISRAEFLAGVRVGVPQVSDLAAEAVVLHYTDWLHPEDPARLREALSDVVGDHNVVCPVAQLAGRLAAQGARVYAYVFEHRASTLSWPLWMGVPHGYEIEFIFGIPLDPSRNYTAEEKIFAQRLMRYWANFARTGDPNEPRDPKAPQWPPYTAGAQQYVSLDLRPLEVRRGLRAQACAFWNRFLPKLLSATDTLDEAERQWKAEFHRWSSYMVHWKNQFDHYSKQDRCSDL

Structure (SMILES): CO[C@@H]1CC[C@](C)(O)C(C(=O)C2(C)NC(=O)CC[C@H](N)C(=O)O2)=C1O (some centres not stated)
- inhibition: 20%

Structure (SMILES): C=C1CC[C@@H](OC)C(O)=C1C(=O)C1(C)NC(=O)CC[C@H](N)C(=O)O1 (some centres not stated)
- inhibition: 7%
